Results: patent US11505575B2, “Cyclic polypeptides for PCSK9 inhibition” (Merck Sharp & Dohme LLC, priority 2018, dated 2022)
pIC50: −log10 of the molar value. *1 amine or outer side, *2 acyl side, *3 side chain or, on linkers, in order; H or OH if unused. Where a SMILES comes first, the peptide text is derived from it. Bridges are numbered along the chain shown (N, C = ends). [ ]: non-standard residue; d: D form. Ala(benzothiazol-2-yl) = N[C@@H](Cc1nc2ccccc2s1)C(=O)O; Phe(4-guanidino) = N=C(N)Nc1ccc(C[C@H](N)C(=O)O)cc1; X4 = O=C([C@H](Cc1cc2cc(F)ccc2[nH]1)N[*:1])[*:2]; Trp(5-F) = N[C@@H](Cc1c[nH]c2ccc(F)cc12)C(=O)O; Trp(7-aza) = N[C@@H](Cc1c[nH]c2ncccc12)C(=O)O; hAad = O=C([C@H](CCCCC(=O)[*:3])N[*:1])[*:2]; X7 = O=C([C@H](Cc1cc[nH]c1)N[*:1])[*:2]; mXylylene = c1cc(C[*:1])cc(C[*:2])c1; d(aThr) = C[C@@H](O)[C@@H](N)C(=O)O; Cha = N[C@@H](CC1CCCCC1)C(=O)O; Agp = N=C(N)NC[C@H](N)C(=O)O; Chg = N[C@H](C(=O)O)C1CCCCC1; Tle = CC(C)(C)[C@H](N)C(=O)O; αMeV = CC(C)[C@](C)(N)C(=O)O; hLys = NCCCCC[C@H](N)C(=O)O; αMeP = C[C@@]1(C(=O)O)CCCN1; hSer = N[C@@H](CCO)C(=O)O; Dab = NCC[C@H](N)C(=O)O; Nva = CCC[C@H](N)C(=O)O; Aib = CC(C)(N)C(=O)O; Ahx = NCCCCCC(=O)O; GABA = NCCCC(=O)O; Mpa = O=C(O)CCS

Target: human PCSK9 / human LDLR EGFa domain interaction (Homo sapiens, UniProt Q8NBP7)
Sequence (Q8NBP7 153-692): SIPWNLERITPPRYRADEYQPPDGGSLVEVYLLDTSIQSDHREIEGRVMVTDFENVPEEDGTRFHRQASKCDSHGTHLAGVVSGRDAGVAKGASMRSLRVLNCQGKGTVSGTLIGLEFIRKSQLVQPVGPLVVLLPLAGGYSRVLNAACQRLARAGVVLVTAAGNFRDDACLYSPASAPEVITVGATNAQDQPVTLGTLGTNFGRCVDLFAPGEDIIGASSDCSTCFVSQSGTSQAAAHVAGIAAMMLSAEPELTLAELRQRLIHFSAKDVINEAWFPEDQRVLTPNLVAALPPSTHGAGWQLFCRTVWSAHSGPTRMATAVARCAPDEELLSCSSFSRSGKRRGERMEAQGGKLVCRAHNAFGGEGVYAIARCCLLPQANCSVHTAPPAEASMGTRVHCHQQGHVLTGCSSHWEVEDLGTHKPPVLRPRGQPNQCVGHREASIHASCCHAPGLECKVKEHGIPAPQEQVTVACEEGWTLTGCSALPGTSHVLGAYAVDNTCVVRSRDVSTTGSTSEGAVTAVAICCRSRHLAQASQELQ
Sequence (Q8NBP7 31-152 partner limits assumed): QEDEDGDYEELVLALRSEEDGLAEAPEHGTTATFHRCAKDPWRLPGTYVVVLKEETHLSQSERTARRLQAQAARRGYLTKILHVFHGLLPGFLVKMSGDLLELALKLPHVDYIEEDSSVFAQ
Experiment: TR-FRET assay of inhibition of the PCSK9-LDLR protein-protein interaction
Type: binding
Details: 20 nM biotinylated human PCSK9 + 20 nM his-tagged human LDLR EGFa domain, 2 hours room temperature
Procedure: A time-resolved fluorescence resonance energy (TR-FRET) assay was used to measure inhibition of the PCSK9-LDLR protein-protein interaction. Briefly, 20 nM avitag-biotinylated human PCSK9 was incubated with 20 nM his-tagged human LDLR EGFa domain in the presence of 5 nM LANCE Ulight Streptavidin (Perkin Elmer) and 5 nM europium-Anti-6×His (Perkin Elmer) for 2 hours covered at room temperature in buffer containing 50 mM HEPES, 150 mM NaCl, 5 mM CaCl2, 0.01% BSA and 0.01% Surfactant P20. Compounds were tested in dose-response and concentrations giving half-maximal inhibition calculated using a 4-parameter fit equation.

| pIC50 | Compound |
| --- | --- |
| 6.00 to 7.00 | CCC[C@@H]1NC(=O)[C@H](Cc2c[nH]c3ncccc23)NC(=O)[C@H]([C@@H](C)O)NC(=O)[C@H](CCCCCN)NC(=O)[C@H](Cc2ccc(O)cc2)NC(=O)[C@H](C(C)(C)C)NC(=O)CCSCc2cccc(c2)CSC[C@@H](C(N)=O)NC(=O)[C@H]([C@@H](C)O)NC(=O)[C@H](CCC)NC(=O)[C@H](Cc2ccc(O)cc2)NC(=O)[C@H](CCC(=O)O)NC1=O [Compound 062] ([Mpa][Tle]Y[hLys]T[Trp(7-aza)][Nva]EY[Nva]TC-NH2; linker 1-12 via mXylylene) |
| 6.00 to 7.00 | CC(C)[C@]1(C)NC(=O)[C@H](Cc2ccc(O)cc2)NC(=O)[C@H](CCC(=O)O)NC(=O)C(C)(C)NC(=O)[C@H](Cc2c[nH]c3ncccc23)NC(=O)[C@H]([C@@H](C)O)NC(=O)[C@H](CCCCN)NC(=O)[C@H](Cc2ccc(O)cc2)NC(=O)[C@H](C(C)(C)C)NC(=O)CCSCc2cccc(c2)CSC[C@@H](C(N)=O)NC(=O)[C@H]([C@@H](C)O)NC1=O [Compound 063] ([Mpa][Tle]YKT[Trp(7-aza)][Aib]EY[αMeV]TC-NH2; linker 1-12 via mXylylene) |
| 6.00 to 7.00 | CCC[C@@H]1NC(=O)[C@H](Cc2c[nH]c3ncccc23)NC(=O)[C@H]([C@@H](C)O)NC(=O)[C@H](Cc2cnc[nH]2)NC(=O)[C@H](Cc2ccc(O)cc2)NC(=O)[C@H](C(C)(C)C)NC(=O)CCSCc2cccc(c2)CSC[C@@H](C(N)=O)NC(=O)[C@H]([C@@H](C)O)NC(=O)[C@H](CCO)NC(=O)[C@H](Cc2ccc(O)cc2)NC(=O)[C@H](CCC(=O)O)NC1=O [Compound 072] ([Mpa][Tle]YHT[Trp(7-aza)][Nva]EY[hSer]TC-NH2; linker 1-12 via mXylylene) |
| 6.00 to 7.00 | CCC[C@@H]1NC(=O)[C@H](Cc2ccc(O)cc2)NC(=O)[C@H](CCC(=O)O)NC(=O)[C@H](CCC)NC(=O)[C@H](Cc2c[nH]c3ncccc23)NC(=O)[C@H]([C@@H](C)O)NC(=O)[C@H](Cc2cnc[nH]2)NC(=O)[C@H](Cc2ccc(O)cc2)NC(=O)[C@H](C(C)(C)C)NC(=O)CCSCc2cccc(c2)CSC[C@@H](C(N)=O)NC(=O)[C@H](CCO)NC1=O [Compound 074] ([Mpa][Tle]YHT[Trp(7-aza)][Nva]EY[Nva][hSer]C-NH2; linker 1-12 via mXylylene) |
| 6.00 to 7.00 | CCC[C@@H]1NC(=O)[C@H](Cc2c[nH]c3ncccc23)NC(=O)[C@H]([C@@H](C)O)NC(=O)[C@H](Cc2cc[nH]c2)NC(=O)[C@H](Cc2ccc(O)cc2)NC(=O)[C@H](C(C)(C)C)NC(=O)CCSCc2cccc(c2)CSC[C@@H](C(N)=O)NC(=O)[C@]2(C)CCCN2C(=O)[C@H](Cc2ccc(O)cc2)NC(=O)[C@H](CCC(=O)O)NC1=O [Compound 076] ([Mpa][Tle]Y[X7]T[Trp(7-aza)][Nva]EY[αMeP]C-NH2; linker 1-11 via mXylylene) |
| 6.00 to 7.00 | CC(C)[C@]1(C)NC(=O)[C@H](Cc2ccc(O)cc2)NC(=O)[C@H](CCC(=O)O)NC(=O)C(C)(C)NC(=O)[C@H](Cc2c[nH]c3ncccc23)NC(=O)[C@H]([C@@H](C)O)NC(=O)[C@H](CCCCN)NC(=O)[C@H](Cc2ccc(O)cc2)NC(=O)[C@H](C(C)(C)C)NC(=O)CCSCc2cccc(c2)CSC[C@H](C(N)=O)NC(=O)[C@H]([C@@H](C)O)NC1=O [Compound 077] ([Mpa][Tle]YKT[Trp(7-aza)][Aib]EY[αMeV]T[dC]-NH2; linker 1-12 via mXylylene) |
| 6.00 to 7.00 | CCC[C@@H]1NC(=O)[C@H](Cc2nc3ccccc3s2)NC(=O)[C@H]([C@@H](C)O)NC(=O)[C@H](Cc2cnc[nH]2)NC(=O)[C@H](Cc2ccc(O)cc2)NC(=O)[C@H](C(C)(C)C)NC(=O)CCSCc2cccc(c2)CSC[C@@H](C(N)=O)NC(=O)[C@H]([C@@H](C)O)NC(=O)[C@H](CCC)NC(=O)[C@H](Cc2ccc(O)cc2)NC(=O)[C@H](CCC(=O)O)NC1=O [Compound 084] ([Mpa][Tle]YHT[Ala(benzothiazol-2-yl)][Nva]EY[Nva]TC-NH2; linker 1-12 via mXylylene) |
| 6.00 to 7.00 | CCC[C@@H]1NC(=O)[C@H](Cc2c[nH]c3ncccc23)NC(=O)[C@H]([C@@H](C)O)NC(=O)[C@H](CNC(=N)N)NC(=O)[C@H](Cc2cc3cc(F)ccc3[nH]2)NC(=O)[C@H](Cc2cc3cc(F)ccc3[nH]2)NC(=O)[C@@H](NC(=O)[C@H](Cc2ccc(NC(=N)N)cc2)NC(C)=O)CSCc2cccc(c2)CSC[C@@H](C(N)=O)NC(=O)[C@H]([C@@H](C)O)NC(=O)[C@H](CCC)NC(=O)[C@H](Cc2ccc(O)cc2)NC(=O)[C@H](CCC(=O)O)NC1=O [Compound 092] (Ac-[Phe(4-guanidino)]C[X4][X4][Agp]T[Trp(7-aza)][Nva]EY[Nva]TC-NH2; linker 2-13 via mXylylene) |
| 6.00 to 7.00 | CCC[C@@H]1NC(=O)[C@H](Cc2c[nH]c3ncccc23)NC(=O)[C@H]([C@@H](C)O)NC(=O)[C@H](CNC(=N)N)NC(=O)[C@H](Cc2c[nH]c3ccc(F)cc23)NC(=O)[C@H](C(C)(C)C)NC(=O)[C@@H](NC(=O)[C@H](Cc2ccc(NC(=N)N)cc2)NC(C)=O)CSCc2cccc(c2)CSC[C@@H](C(N)=O)NC(=O)[C@H]([C@@H](C)O)NC(=O)[C@H](CCC)NC(=O)[C@H](Cc2ccc(O)cc2)NC(=O)[C@H](CCC(=O)O)NC1=O [Compound 093] (Ac-[Phe(4-guanidino)]C[Tle][Trp(5-F)][Agp]T[Trp(7-aza)][Nva]EY[Nva]TC-NH2; linker 2-13 via mXylylene) |
| 6.00 to 7.00 | CCC[C@@H]1NC(=O)[C@H](Cc2c[nH]c3ncccc23)NC(=O)[C@@H]([C@@H](C)O)NC(=O)[C@@H]2CCCCC(=O)NCC[C@H](NC1=O)C(=O)N[C@@H](Cc1ccc(O)cc1)C(=O)N[C@@H](C1CCCCC1)C(=O)N[C@@H]([C@@H](C)O)C(=O)N[C@H](C(N)=O)CSCc1cccc(c1)CSCCC(=O)N[C@@H](C(C)(C)C)C(=O)N[C@@H](Cc1ccc(O)cc1)C(=O)N2 [Compound 108] ([Mpa][Tle]Y[hAad][d(aThr)][Trp(7-aza)][Nva][Dab]Y[Chg]TC-NH2; linker 1-12 via mXylylene; lactam 4-8) |
| 6.00 to 7.00 | CCC[C@@H]1NC(=O)[C@H](Cc2c[nH]c3ncccc23)NC(=O)[C@H]([C@@H](C)O)NC(=O)[C@@H]2CCCCNC(=O)CC[C@H](NC1=O)C(=O)N[C@@H](Cc1ccc(O)cc1)C(=O)NC(C)(C)C(=O)N[C@@H]([C@@H](C)O)C(=O)N[C@H](C(N)=O)CSCc1cccc(c1)CSCCC(=O)N[C@@H](C(C)(C)C)C(=O)N[C@@H](Cc1ccc(O)cc1)C(=O)N2 [Compound 114] ([Mpa][Tle]YKT[Trp(7-aza)][Nva]EY[Aib]TC-NH2; linker 1-12 via mXylylene; lactam 4-8) |
| 6.00 to 7.00 | CCC[C@@H]1NC(=O)[C@H](Cc2c[nH]c3ncccc23)NC(=O)[C@H]([C@@H](C)O)NC(=O)[C@@H]2CCCCNC(=O)CC[C@@H](NC1=O)C(=O)N[C@@H](Cc1ccc(O)cc1)C(=O)N[C@@H](C1CCCCC1)C(=O)N[C@@H]([C@@H](C)O)C(=O)NCCCC(=O)NCCCCCC(=O)N[C@@H](C(C)(C)C)C(=O)N[C@@H](Cc1ccc(O)cc1)C(=O)N2 [Compound 117] (cyclo([Ahx][Tle]YKT[Trp(7-aza)][Nva][dE]Y[Chg]T[GABA]); lactam 4-8) |

| Compound | pIC50 |
| --- | --- |
| CCC[C@@H]1NC(=O)[C@H](Cc2c[nH]c3ncccc23)NC(=O)[C@H]([C@@H](C)O)NC(=O)[C@H](Cc2c[nH]cn2)NC(=O)[C@H](Cc2ccc(O)cc2)NC(=O)[C@H](C(C)(C)C)NC(=O)CCSCc2cccc(c2)CSC[C@@H](C(N)=O)NC(=O)[C@H]([C@@H](C)O)NC(=O)[C@]2(C)CCCN2C(=O)[C@H](Cc2ccc(O)cc2)NC(=O)[C@H](CCC(=O)O)NC1=O [Compound 075] ([Mpa][Tle]YHT[Trp(7-aza)][Nva]EY[αMeP]TC-NH2; linker 1-12 via mXylylene) | 6.00 to 7.00 |
| CCC[C@@H]1NC(=O)[C@H](Cc2ccc(O)cc2)NC(=O)[C@H](CCC(=O)O)NC(=O)[C@H](CC(C)C)NC(=O)[C@H](Cc2c[nH]c3ncccc23)NC(=O)[C@H]([C@@H](C)O)NC(=O)[C@H](Cc2cnc[nH]2)NC(=O)[C@H](Cc2ccc(O)cc2)NC(=O)[C@H](C(C)(C)C)NC(=O)CCSCc2cccc(c2)CSC[C@@H](C(N)=O)NC(=O)[C@H]([C@@H](C)O)NC1=O [Compound 078] ([Mpa][Tle]YHT[Trp(7-aza)]LEY[Nva]TC-NH2; linker 1-12 via mXylylene) | 6.00 to 7.00 |
| CCC[C@@H]1NC(=O)[C@H](Cc2ccc(O)cc2)NC(=O)[C@H](CCC(=O)O)NC(=O)[C@H](CC2CCCCC2)NC(=O)[C@H](Cc2c[nH]c3ncccc23)NC(=O)[C@H]([C@@H](C)O)NC(=O)[C@H](Cc2cnc[nH]2)NC(=O)[C@H](Cc2ccc(O)cc2)NC(=O)[C@H](C(C)(C)C)NC(=O)CCSCc2cccc(c2)CSC[C@@H](C(N)=O)NC(=O)[C@H]([C@@H](C)O)NC1=O [Compound 079] ([Mpa][Tle]YHT[Trp(7-aza)][Cha]EY[Nva]TC-NH2; linker 1-12 via mXylylene) | 4.92 to 6.00 |
